# US8952024B2, “Herbicidal pyrimidone derivatives” (E I du Pont de Nemours and Company, priority 2009, dated 2015)
# Assays:
# Experiment in all cases: Test C plant response
# Assay type in all cases: in vivo
# Details in all cases: Preemergence, scale 0 to 100
# [1] = tested on: wild oat (Avena fatua)
# [2] = tested on: winter wheat (Triticum aestivum)
# [3] = tested on: kochia (Kochia scoparia)
# [4] = tested on: field poppy (Papaver rhoeas)
smiles,measurement,setting,value
"O=C1CCCC(O)=C1C(=O)c1cnc(-c2ccccc2)n(-c2ccccc2)c1=O [Compound 2, 5-[(2-hydroxy-6-oxo-1-cyclohexen-1-yl)carbonyl]-2,3-diphenyl-4(3H)-pyrimidinone]","Plant response rating: Oat, Wild",[1]; 62 g ai/ha,0
same,"Plant response rating: Oat, Wild",[1]; 125 g ai/ha,0
same,"Plant response rating: Oat, Wild",[1]; 16 g ai/ha,0
same,"Plant response rating: Oat, Wild",[1]; 31 g ai/ha,0
same,"Plant response rating: Wheat, Winter",[2]; 62 g ai/ha,0
same,"Plant response rating: Wheat, Winter",[2]; 125 g ai/ha,0
same,"Plant response rating: Wheat, Winter",[2]; 16 g ai/ha,0
same,"Plant response rating: Wheat, Winter",[2]; 31 g ai/ha,0
same,Plant response rating: Kochia,[3]; 62 g ai/ha,30
same,Plant response rating: Kochia,[3]; 125 g ai/ha,90
same,Plant response rating: Kochia,[3]; 16 g ai/ha,5
same,Plant response rating: Kochia,[3]; 31 g ai/ha,5
same,Plant response rating: Field Poppy,[4]; 62 g ai/ha,95
same,Plant response rating: Field Poppy,[4]; 125 g ai/ha,100
same,Plant response rating: Field Poppy,[4]; 31 g ai/ha,75
